Activity calls are given as the source filed them. The rule behind the calls is not given here. Bridge positions count the residues as written; N and C are the ends. Square brackets hold non-standard residues; d marks the D form. Peptide text beside a SMILES is read from it. * marks the point of attachment. X1 = CC[C@H](C)CCCCC(=O)*; Dab = NCC[C@H](N)C(=O)O
How the values were obtained:
Staphylococcus aureus [1] = assay: Antimicrobial activity against Staphylococcus aureus ATCC 25923 in presence of NaCl; type: functional, organism-based
Staphylococcus aureus [2] = assay: Antimicrobial activity against Staphylococcus aureus ATCC 25923 in presence of FeCl3; type: functional, organism-based
Escherichia coli [3] = assay: Antimicrobial activity against Escherichia coli ATCC 25922 in presence of MgCl2; type: functional, organism-based
Escherichia coli [4] = assay: Bactericidal activity against Escherichia coli ATCC 25922 at 2 times MIC measured after 30 mins by time-killing kinetics assay; type: functional; conditions: 0.5 h
Escherichia coli [5] = assay: Antibiofilm activity against Escherichia coli ATCC 25922 assessed as inhibition of biofilm formation at 2 times MIC measured after 24 hrs by crystal violet staining based assay; type: functional, organism-based
Escherichia coli [6] = assay: Disruption of membrane integrity in Escherichia coli ATCC 25922 assessed as increase in nucleic acid leakage by measuring PI-uptake level by microplate reader assay; type: functional, organism-based
Staphylococcus aureus [7] = assay: Disruption of membrane integrity in Staphylococcus aureus ATCC 25923 assessed as increase in nucleic acid leakage by measuring PI-uptake level by microplate reader assay; type: functional, organism-based
Escherichia coli [8] = assay: Antibacterial activity against Escherichia coli ATCC 25922 assessed as inhibition of gentamicin resistance development measured after 15 passages in presence of gentamicin by resistance development assay; type: functional, organism-based
Escherichia coli [9] = assay: Antibacterial activity against Escherichia coli ATCC 25922 assessed as inhibition of rifampin resistance development measured after 15 passages in presence of rifampin by resistance development assay; type: functional, organism-based
Staphylococcus aureus [10] = assay: Antibacterial activity against Staphylococcus aureus ATCC 25923 assessed as inhibition of gentamicin resistance development measured after 15 passages in presence of gentamicin by resistance development assay; type: functional, organism-based
[11] = Acute toxicity in BALB/c mouse assessed as pathological changes in lung at 20 to 80 mg/kg, ip administered as single dose measured for 7 days by H and E staining method; type: organism-based; conditions: in vivo, 168 h, dose 20-80 mg/kg, time 7 day
[12] = Acute toxicity in BALB/c mouse assessed as pathological changes in kidney at 20 to 80 mg/kg, ip administered as single dose measured for 7 days by H and E staining method; type: organism-based; conditions: in vivo, 168 h, dose 20-80 mg/kg, time 7 day
Staphylococcus aureus [13] = assay: In vivo antimicrobial activity against Staphylococcus aureus ATCC 25923 infected in BALB/C mouse pulmonary infection model administered ip; type: functional, organism-based; conditions: dose 5-10 mg/kg, DDE = dose-dependent effect
Staphylococcus aureus [14] = assay: Antibacterial activity against Staphylococcus aureus ATCC 25923 infected in BALB/C mouse pulmonary infection model assessed as increase in dilation of alveoli in lung at 10 mg/kg, ip after 24 hrs by H and E staining method; type: functional, organism-based
Staphylococcus aureus [15] = assay: Antibacterial activity against Staphylococcus aureus ATCC 25923 infected in BALB/C mouse pulmonary infection model assessed as increase in bacterial killing in lung at 10 mg/kg, ip after 24 hrs by H and E staining method; type: functional, organism-based
[16] = Acute toxicity in BALB/c mouse spleen assessed as edema at 20 to 80 mg/kg, ip administered as single dose measured for 7 days by H and E staining method; type: organism-based; conditions: in vivo, 168 h, dose 20-80 mg/kg, time 7 day
HK-2 = assay: Cytotoxicity against human HK-2 cells assessed as reduction in cell viability at 0 to 128 uM incubated for 1 hr by Resazurin cell viability kit; type: toxicity, cell-based; conditions: hk-2, 1 h, dose 0-128 µM
Escherichia coli [17] = assay: Antimicrobial activity against Escherichia coli ATCC 25922 assessed as reduction in survival rate in presence of >= 0.02 microg/ml of trypsin measured after 6 hrs; type: functional, organism-based
Escherichia coli [18] = assay: Antimicrobial activity against Escherichia coli ATCC 25922 assessed as reduction in survival rate in presence of >= 0.02 microg/ml of chymotrypsin measured after 6 hrs; type: functional, organism-based
Escherichia coli [19] = assay: Bactericidal activity against Escherichia coli ATCC 25922 at 2 times MIC measured after 1 hr by time-killing kinetics assay; type: functional
Escherichia coli [20] = assay: Bactericidal activity against Escherichia coli ATCC 25922 at 0.5 times MIC measured after 1 hr by time-killing kinetics assay; type: functional
[21] = Acute toxicity in BALB/c mouse assessed as mortality at 20 mg/kg, ip administered as single dose measured for 7 days; type: organism-based; conditions: in vivo, 168 h, time 7 day
[22] = Acute toxicity in BALB/c mouse assessed as mortality at 40 mg/kg, ip measured within 10 mins; type: organism-based; conditions: in vivo
[23] = Acute toxicity in BALB/c mouse assessed as ruffled hairs at 10 to 20 mg/kg, ip administered as single dose measured for 7 days; type: organism-based; conditions: in vivo, 168 h, dose 10-20 mg/kg, time 7 day
[24] = Acute toxicity in BALB/c mouse assessed as abdominal twitching at 10 to 20 mg/kg, ip administered as single dose measured for 7 days; type: organism-based; conditions: in vivo, 168 h, dose 10-20 mg/kg, time 7 day
[25] = Acute toxicity in BALB/c mouse assessed as hyper-mobility at 10 to 20 mg/kg, ip administered as single dose measured for 7 days; type: organism-based; conditions: in vivo, 168 h, dose 10-20 mg/kg, time 7 day
[26] = Acute toxicity in BALB/c mouse assessed as pathological changes in heart at 10 to 40 mg/kg, ip administered as single dose measured for 7 days by H and E staining method; type: organism-based; conditions: in vivo, 168 h, dose 10-40 mg/kg, time 7 day
[27] = Acute toxicity in BALB/c mouse spleen assessed as edema at 10 to 40 mg/kg, ip administered as single dose measured for 7 days by H and E staining method; type: organism-based; conditions: in vivo, 168 h, dose 10-40 mg/kg, time 7 day
[28] = Acute toxicity in BALB/c mouse lung assessed as constricted pulmonary alveoli at 10 to 40 mg/kg, ip administered as single dose measured for 7 days by H and E staining method; type: organism-based; conditions: in vivo, 168 h, dose 10-40 mg/kg, time 7 day
[29] = Acute toxicity in BALB/c mouse liver assessed as infiltration of inflammatory cells at 10 to 40 mg/kg, ip administered as single dose measured for 7 days by H and E staining method; type: organism-based; conditions: in vivo, 168 h, dose 10-40 mg/kg, time 7 day
Escherichia coli [30] = assay: Antimicrobial activity against Escherichia coli ATCC 25922 assessed as reduction in survival rate in presence of 0.02 to 2000 microg/ml of chymotrypsin measured after 6 hrs; type: functional, organism-based
Escherichia coli [31] = assay: Antimicrobial activity against Escherichia coli ATCC 25922 assessed as reduction in survival rate in presence of 0.02 to 2000 microg/ml of trypsin measured after 6 hrs; type: functional, organism-based
Staphylococcus aureus [32] = assay: Antimicrobial activity against Staphylococcus aureus ATCC 25923 assessed as fold increase in MIC in presence of KCl; type: functional
Staphylococcus aureus [33] = assay: Antimicrobial activity against Staphylococcus aureus ATCC 25923 assessed as increase fold in increase MIC in presence of FeCl3; type: functional
Escherichia coli [34] = assay: Bactericidal activity against Escherichia coli ATCC 25922 at 2 times MIC measured after 3 hrs by time-killing kinetics assay; type: functional
Escherichia coli [35] = assay: Bactericidal activity against Escherichia coli ATCC 25922 at 1 times MIC measured after 6 hrs by time-killing kinetics assay; type: functional
[36] = Acute toxicity in BALB/c mouse lung assessed as increase in inter-alveolar space at 20 to 80 mg/kg, ip administered as single dose measured for 7 days by H and E staining method; type: organism-based; conditions: in vivo, 168 h, dose 20-80 mg/kg, time 7 day
Escherichia coli [37] = assay: Antibiofilm activity against Escherichia coli ATCC 25922 assessed as inhibition of biofilm formation at 4 times MIC measured after 24 hrs by crystal violet staining based assay; type: functional, organism-based

CC(C)C[C@H](NC(=O)[C@H](CC(C)C)NC(=O)[C@H](CCC(=O)O)NC(=O)[C@H](CCCCN)NC(=O)[C@H](CC(C)C)NC(=O)[C@H](CC(C)C)NC(=O)[C@H](CCCCN)NC(=O)[C@H](C)NC(=O)[C@@H](NC(=O)[C@H](CCCCN)NC(=O)[C@@H]1CCCN1C(=O)[C@H](CC(C)C)NC(=O)[C@@H](N)Cc1ccccc1)C(C)C)C(N)=O (H-FLPKVAKLLKELL-NH2)
Activity (Staphylococcus aureus [1]): Active | Activity (Staphylococcus aureus [2]): Active | Activity (Escherichia coli [3]): Active | Activity (Escherichia coli [4]): 100% | Activity (Escherichia coli [5]): Active | Activity (Escherichia coli [6]): Active | Activity (Staphylococcus aureus [7]): Active | Activity (Escherichia coli [8]): Active | Activity (Escherichia coli [9]): Active | Activity (Staphylococcus aureus [10]): Active | Activity [11]: Non-Toxic | Activity [12]: Non-Toxic | Activity (Staphylococcus aureus [13]): Dde | Activity (Staphylococcus aureus [14]): Active | Activity (Staphylococcus aureus [15]): Active | Activity [16]: Toxic

CC[C@H](C)CCCCC(=O)N[C@@H](CCN)C(=O)N[C@H](C(=O)N[C@@H](CCN)C(=O)N[C@H]1CCNC(=O)[C@H]([C@@H](C)O)NC(=O)[C@H](CCN)NC(=O)[C@H](CCN)NC(=O)[C@H](CC(C)C)NC(=O)[C@@H](Cc2ccccc2)NC(=O)[C@H](CCN)NC1=O)[C@@H](C)O (X1-[Dab]T[Dab][Dab][Dab][dF]L[Dab][Dab]T; lactam 4-C)
Activity (HK-2): Non-Toxic | Activity (Escherichia coli [17]): Active | Activity (Escherichia coli [18]): Active | Activity (Escherichia coli [19]): 100% | Activity (Escherichia coli [20]): 100% | Activity [21]: Toxic | Activity [22]: Toxic | Activity [23]: Toxic | Activity [24]: Toxic | Activity [25]: Toxic | Activity [26]: Non-Toxic | Activity [27]: Non-Toxic | Activity [28]: Non-Toxic | Activity [29]: Non-Toxic | Activity (Escherichia coli [30]): Active | Activity (Escherichia coli [31]): Active

CC[C@H](C)[C@H](NC(=O)[C@@H]1CCCN1C(=O)[C@H](CC(C)C)NC(=O)[C@@H](N)Cc1ccccc1)C(=O)N[C@H](C(=O)N[C@@H](C)C(=O)N[C@@H](CCCCN)C(=O)N[C@@H](CC(C)C)C(=O)N[C@@H](CC(C)C)C(=O)N[C@@H](CO)C(=O)NCC(=O)N[C@@H](CC(C)C)C(=O)N[C@@H](CC(C)C)C(N)=O)C(C)C (H-FLPIVAKLLSGLL-NH2)
fold change (FC) (Staphylococcus aureus [32]): 2 | fold change (FC) (Staphylococcus aureus [33]): 2 | Activity (Escherichia coli [34]): 100% | Activity (Escherichia coli [35]): 100% | Activity [36]: Toxic | Activity (Escherichia coli [37]): Active

From ChEMBL document CHEMBL5108051, “Improving the Antimicrobial Performance of Amphiphilic Cationic Antimicrobial Peptides Using Glutamic Acid Full-Scan and Positive Charge Compensation Strategies” (J Med Chem, 2022)
